Test results reported in PubChem BioAssay AID330 (DTP/NCI, 2004).
Several values for one entry are separate records, joined by “and”; a condition that tells them apart may be missing. Identical values can stand only once. Inconclusive results and toxic doses are left out.

Test system: P388 leukemia ip, CD2F1 mice, survival T/C
Assay: NCI In Vivo Anticancer Drug Screen. Data for tumor model P388 Leukemia (intraperitoneal) in CD2F1 (CDF1) mice
Details: endpoint: median survival time, higher = longer survival
Method in brief: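 Mice carrying the transplanted tumor received test compound or vehicle. Survival was recorded in each group, and the value is the treated-group measurement divided by that of the vehicle-treated control group.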

[1] = dose: 50.0 mg/kg/injection, schedule: Q01DX009 (ip), vehicle: saline with Tween-80
[2] = dose: 100.0 mg/kg/injection, schedule: Q01DX009 (ip), vehicle: saline with Tween-80
[3] = dose: 200.0 mg/kg/injection, schedule: Q01DX009 (ip), vehicle: saline with Tween-80
[4] = dose: 50.0 mg/kg/injection, schedule: Q01DX005 (ip), vehicle: Klucel (hydroxypropylcellulose) (HPC)
[5] = dose: 100.0 mg/kg/injection, schedule: Q01DX005 (ip), vehicle: Klucel (hydroxypropylcellulose) (HPC)
[6] = dose: 12.5 mg/kg/injection, schedule: Q01DX005 (ip), vehicle: Klucel (hydroxypropylcellulose) (HPC)
[7] = dose: 25.0 mg/kg/injection, schedule: Q01DX005 (ip), vehicle: Klucel (hydroxypropylcellulose) (HPC)
[8] = dose: 200.0 mg/kg/injection, schedule: Q01DX005 (ip), vehicle: Klucel (hydroxypropylcellulose) (HPC)
[9] = dose: 50.0 mg/kg/injection, schedule: Q04DX002 (ip), vehicle: Klucel (hydroxypropylcellulose) (HPC)
[10] = dose: 100.0 mg/kg/injection, schedule: Q04DX002 (ip), vehicle: Klucel (hydroxypropylcellulose) (HPC)
[11] = dose: 60.0 mg/kg/injection, schedule: Q01DX005 (ip), vehicle: saline with Tween-80
[12] = dose: 120.0 mg/kg/injection, schedule: Q01DX005 (ip), vehicle: saline with Tween-80
[13] = dose: 6.25 mg/kg/injection, schedule: Q01DX005 (ip), vehicle: Klucel (hydroxypropylcellulose) (HPC)
[14] = dose: 50.0 mg/kg/injection, schedule: Q04DX003 (ip), vehicle: saline with Tween-80
[15] = dose: 50.0 mg/kg/injection, schedule: Q01DX005 (ip), vehicle: saline

O=C(Nc1cccc2ccccc12)OC1CC2CCC1C2Cl (centres undefined)
T/C (dose: 25.0 mg/kg/injection, schedule: Q01DX009 (ip), vehicle: other): 93 % of control
T/C (dose: 50.0 mg/kg/injection, schedule: Q01DX009 (ip), vehicle: other): 87 % of control
T/C (dose: 100.0 mg/kg/injection, schedule: Q01DX009 (ip), vehicle: other): 87 % of control
T/C (dose: 200.0 mg/kg/injection, schedule: Q01DX009 (ip), vehicle: other): 88 % of control
T/C (dose: 400.0 mg/kg/injection, schedule: Q01DX009 (ip), vehicle: other): 91 % of control

N#Cc1c(-c2ccc(Cl)cc2)c(-c2ccc(Cl)cc2)nn(CCOC(=O)CCC(=O)OCCn2nc(-c3ccc(Cl)cc3)c(-c3ccc(Cl)cc3)c(C#N)c2=O)c1=O
T/C (dose: 25.0 mg/kg/injection, schedule: Q04DX002 (ip), vehicle: distilled water + Tween-80): 95 % of control
T/C (dose: 50.0 mg/kg/injection, schedule: Q04DX002 (ip), vehicle: distilled water + Tween-80): 89 % of control
T/C (dose: 100.0 mg/kg/injection, schedule: Q04DX002 (ip), vehicle: distilled water + Tween-80): 91 % of control

CO/C=C1\SC(=S)N(c2ccc(NC(C)=O)cc2)C1=O
T/C [1]: 93 % of control
T/C [2]: 92 % of control
T/C [3]: 96 % of control

CCP(=S)(CC)[S][Sn]([CH3])([CH3])[S]P(=S)(CC)CC
T/C [4]: 118 % of control
T/C [5]: 115 % of control

CC1=C(N2CCOCC2)C(N2CCOCC2)=C(C)C(=O)C1=O
T/C [6]: 108 % of control
T/C [7]: 101 % of control
T/C [4]: 108 % of control
T/C [5]: 97 % of control
T/C [8]: 96 % of control

COc1ccc(C(=O)C(CCC(=O)/C=C/c2ccccc2)S(C)(=O)=O)cc1 (centres undefined)
T/C [4]: 105 % of control
T/C [5]: 99 % of control
T/C [8]: 87 % of control

CC(C)CCCCCCCCCCCCC(=O)NCC(=O)NC1C(C)OC(Nc2ncnc3nc[nH]c23)C(O)C1O (centres undefined)
T/C (dose: 0.13 mg/kg/injection, schedule: Q01DX009 (ip), vehicle: other): 114 % of control
T/C (dose: 0.25 mg/kg/injection, schedule: Q01DX009 (ip), vehicle: other): 121 % of control
T/C (dose: 0.5 mg/kg/injection, schedule: Q01DX009 (ip), vehicle: other): 123 % of control
T/C (dose: 1.0 mg/kg/injection, schedule: Q01DX009 (ip), vehicle: other): 157 % of control and 163 % of control
T/C (dose: 1.0 mg/kg/injection, schedule: Q01DX009 (oral), vehicle: distilled water + Tween-80): 104 % of control
T/C (dose: 2.0 mg/kg/injection, schedule: Q01DX009 (oral), vehicle: distilled water + Tween-80): 102 % of control
T/C (dose: 4.0 mg/kg/injection, schedule: Q01DX009 (ip), vehicle: other): 97 % of control
T/C (dose: 4.0 mg/kg/injection, schedule: Q01DX009 (oral), vehicle: distilled water + Tween-80): 105 % of control
T/C (dose: 8.0 mg/kg/injection, schedule: Q01DX009 (oral), vehicle: distilled water + Tween-80): 103 % of control
T/C (dose: 16.0 mg/kg/injection, schedule: Q01DX009 (oral), vehicle: distilled water + Tween-80): 104 % of control

O=C1CC2(C(=O)N1CN1CCOCC1)c1ccccc1-c1ccccc12
T/C [9]: 109 % of control
T/C [10]: 99 % of control and 108 % of control
T/C (dose: 200.0 mg/kg/injection, schedule: Q04DX002 (ip), vehicle: Klucel (hydroxypropylcellulose) (HPC)): 111 % of control

CC1=NN(C(=O)c2ccncc2)C(=O)C1N=Nc1ccc(C)c([N+](=O)[O-])c1 (centres undefined)
T/C [1]: 107 % of control
T/C [2]: 101 % of control
T/C [3]: 97 % of control

COc1cc2ccnc(CCCc3nccc4cc(OC)c(OC)cc34)c2cc1OC
T/C (dose: 25.0 mg/kg/injection, schedule: Q04DX002 (ip), vehicle: Klucel (hydroxypropylcellulose) (HPC)): 101 % of control
T/C [9]: 95 % of control
T/C [10]: 101 % of control and 104 % of control

O=C(CN=Cc1ccc(Cl)cc1Cl)NNC(=O)c1ccc(Cl)cc1Cl
T/C [4]: 92 % of control
T/C [5]: 96 % of control
T/C [8]: 92 % of control

Nc1nc(-c2cc(Cl)cc(Cl)c2)cc(-c2cc(-c3cc(Cl)cc(Cl)c3)nc(N)n2)n1
T/C [11]: 100 % of control
T/C [12]: 106 % of control
T/C (dose: 240.0 mg/kg/injection, schedule: Q01DX005 (ip), vehicle: saline with Tween-80): 96 % of control

Cn1ccc2cc(C3CCCc4c3[nH]c3ccccc43)c(OCc3ccccc3)cc21 (centres undefined)
T/C [13]: 99 % of control
T/C [6]: 97 % of control
T/C [7]: 97 % of control

Nc1cccc(NCc2ccncc2)n1
T/C [13]: 98 % of control and 99 % of control and 100 % of control
T/C [6]: 100 % of control and 101 % of control and 94 % of control
T/C [7]: 100 % of control (2×) and 96 % of control
T/C [5]: 113 % of control

COc1cc(C=Nc2cc(Cl)ccc2-n2ccnc2C)ccc1N(CCCl)CCCl
T/C [14]: 222 % of control
T/C (dose: 200.0 mg/kg/injection, schedule: Q04DX003 (ip), vehicle: saline with Tween-80): 88 % of control

Cc1cnn(-c2ccccc2)[n+]1[O-]
T/C [15]: 99 % of control
T/C (dose: 100.0 mg/kg/injection, schedule: Q01DX005 (ip), vehicle: saline): 96 % of control
T/C (dose: 200.0 mg/kg/injection, schedule: Q01DX005 (ip), vehicle: saline): 102 % of control

C#CCNCCCn1c(=O)nc2n(-c3ccccc3)c3ccccc3nc-2c1=O
T/C (dose: 25.0 mg/kg/injection, schedule: Q04DX003 (ip), vehicle: Klucel (hydroxypropylcellulose) (HPC)): 110 % of control
T/C (dose: 50.0 mg/kg/injection, schedule: Q04DX003 (ip), vehicle: Klucel (hydroxypropylcellulose) (HPC)): 106 % of control
T/C (dose: 100.0 mg/kg/injection, schedule: Q04DX003 (ip), vehicle: Klucel (hydroxypropylcellulose) (HPC)): 100 % of control and 107 % of control

O=C(CCCN1CCC(C(=O)c2ccc(F)cc2)CC1)c1ccc(F)cc1
T/C (dose: 1.56 mg/kg/injection, schedule: Q01DX009 (ip), vehicle: saline): 92 % of control
T/C (dose: 3.13 mg/kg/injection, schedule: Q01DX009 (ip), vehicle: saline): 93 % of control
T/C (dose: 6.25 mg/kg/injection, schedule: Q01DX009 (ip), vehicle: saline with Tween-80): 100 % of control
T/C (dose: 6.25 mg/kg/injection, schedule: Q01DX009 (ip), vehicle: saline): 104 % of control
T/C (dose: 12.5 mg/kg/injection, schedule: Q01DX009 (ip), vehicle: saline with Tween-80): 100 % of control
T/C (dose: 25.0 mg/kg/injection, schedule: Q01DX009 (ip), vehicle: saline with Tween-80): 110 % of control
T/C [1]: 118 % of control

NCC(c1ccccc1)C1CCCCC1 (centres undefined)
T/C (dose: 12.5 mg/kg/injection, schedule: Q01DX005 (ip), vehicle: saline): 103 % of control
T/C (dose: 25.0 mg/kg/injection, schedule: Q01DX005 (ip), vehicle: saline): 94 % of control
T/C [15]: 100 % of control and 95 % of control

O=[n+]1c2ccccc2n([O-])c2ccccc21.[Cl][Ni][Cl]
T/C (dose: 6.25 mg/kg/injection, schedule: Q04DX003 (ip), vehicle: saline with Tween-80): 102 % of control and 94 % of control
T/C (dose: 12.5 mg/kg/injection, schedule: Q04DX003 (ip), vehicle: saline with Tween-80): 111 % of control and 121 % of control
T/C (dose: 25.0 mg/kg/injection, schedule: Q04DX003 (ip), vehicle: saline with Tween-80): 115 % of control and 121 % of control
T/C [14]: 114 % of control

COc1ccc2ccccc2c1Cc1ccc(N(C)C)cc1Cl
T/C (dose: 50.0 mg/kg/injection, schedule: Q01DX005 (ip), vehicle: saline with Tween-80): 92 % of control
T/C (dose: 100.0 mg/kg/injection, schedule: Q01DX005 (ip), vehicle: saline with Tween-80): 95 % of control
T/C (dose: 200.0 mg/kg/injection, schedule: Q01DX005 (ip), vehicle: saline with Tween-80): 90 % of control

CNC(=O)OCc1ccc(NCCN(C)C)c2c(=O)c3cc(O)ccc3oc12
T/C (dose: 0.38 mg/kg/injection, schedule: Q01DX005 (ip), vehicle: Klucel (hydroxypropylcellulose) (HPC)): 97 % of control
T/C (dose: 0.75 mg/kg/injection, schedule: Q01DX005 (ip), vehicle: Klucel (hydroxypropylcellulose) (HPC)): 106 % of control
T/C (dose: 1.5 mg/kg/injection, schedule: Q01DX005 (ip), vehicle: Klucel (hydroxypropylcellulose) (HPC)): 113 % of control
T/C (dose: 3.0 mg/kg/injection, schedule: Q01DX005 (ip), vehicle: Klucel (hydroxypropylcellulose) (HPC)): 124 % of control
T/C (dose: 6.0 mg/kg/injection, schedule: Q01DX005 (ip), vehicle: Klucel (hydroxypropylcellulose) (HPC)): 120 % of control

COc1ccc(-c2cc(=O)c3cccc(CC(=O)O)c3o2)cc1
T/C [6]: 105 % of control
T/C [7]: 104 % of control
T/C [4]: 114 % of control and 98 % of control
T/C [5]: 170 % of control

CC1OC(C)C(O)C2=C1C(=O)c1ccccc1C2=O (centres undefined)
T/C [11]: 100 % of control
T/C [12]: 100 % of control
